Assay results reported in EP4663640A1 (Shanghai Institute of Materia Medica, Chinese Academy of …, priority 2023, dated 2024).
pIC50: −log10 of the molar value. Like-named read-outs stand apart in the source and are kept apart here.

Target: T1, hTRPC5 (Homo sapiens, UniProt Q9UL62)
T1 construct: expressed in transfected cells; host or cells: HEK-293
T1 sequence (Q9UL62 1-973): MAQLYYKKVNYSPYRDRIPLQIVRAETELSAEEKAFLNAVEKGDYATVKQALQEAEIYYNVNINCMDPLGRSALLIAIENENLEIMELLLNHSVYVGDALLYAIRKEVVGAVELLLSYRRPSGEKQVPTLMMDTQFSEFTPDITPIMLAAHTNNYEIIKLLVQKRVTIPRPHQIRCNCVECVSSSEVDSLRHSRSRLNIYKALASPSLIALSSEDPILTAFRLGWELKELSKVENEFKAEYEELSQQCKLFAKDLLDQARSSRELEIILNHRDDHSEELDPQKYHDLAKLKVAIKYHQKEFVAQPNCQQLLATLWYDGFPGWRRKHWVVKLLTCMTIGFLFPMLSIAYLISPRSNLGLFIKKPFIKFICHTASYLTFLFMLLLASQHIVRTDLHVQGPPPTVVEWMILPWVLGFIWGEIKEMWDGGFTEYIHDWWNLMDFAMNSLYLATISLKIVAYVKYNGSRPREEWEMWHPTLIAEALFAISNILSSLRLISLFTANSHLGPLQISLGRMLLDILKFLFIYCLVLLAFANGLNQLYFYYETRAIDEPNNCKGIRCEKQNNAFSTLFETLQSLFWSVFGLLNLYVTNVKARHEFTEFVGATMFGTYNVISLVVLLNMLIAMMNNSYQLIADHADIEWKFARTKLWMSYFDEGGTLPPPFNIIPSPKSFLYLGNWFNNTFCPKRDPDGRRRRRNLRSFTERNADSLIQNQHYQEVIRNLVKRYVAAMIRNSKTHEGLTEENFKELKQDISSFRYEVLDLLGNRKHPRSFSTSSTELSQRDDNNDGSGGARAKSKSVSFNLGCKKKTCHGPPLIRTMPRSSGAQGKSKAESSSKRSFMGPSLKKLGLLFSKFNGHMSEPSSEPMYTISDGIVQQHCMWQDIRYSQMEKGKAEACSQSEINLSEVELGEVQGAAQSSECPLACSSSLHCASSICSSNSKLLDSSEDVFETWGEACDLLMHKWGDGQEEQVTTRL
Assay: TRPC5 inhibitory activity assay (FLIPR calcium fluorescence, Englerin A stimulation)
Assay type: cell-based
Method: HEK-293 cells expressing hTRPC3, hTRPC4 or hTRPC5 were seeded into black-bottomed 96-well plates coated with poly-lysine (PDL), with 2×10^4 cells per well. After 8 h of culture, the original culture medium was discarded, and 60 µL of Fluo-4/AM dye with a final concentration of 4 µM was added. The plates were incubated at 37 °C for 60 min, and then rinsed five times with calcium flow detection buffer. […] Then, the agonist Englerin A (EA) (MedChemExpress, Shanghai, China, final concentration of 0.3nM) was added, and the fluorescence signal was collected for 600 seconds. The fluorescence signal of the trajectory diagram is represented by F/F0, wherein F is the fluorescence signal at different time points, and F0 is the basic fluorescence signal, that is, the average value of the fluorescence signal at the first 10 time points. […] The area under the curve of the change in fluorescence intensity after adding EA was calculated. IC50 value was calculated using log[Inhibitor] vs. response - Variable slope, taking into account the area under the curve and the log value of the concentration of the compound.

[1] = Table 1, TRPC5 channels, HEK-293 cells expressing hTRPC5, read-out: FLIPR IC50

Row | SMILES | pIC50 [1] | pIC50
1 | Cn1c(=O)n(CCCO)c(=O)c2c1nc(C1=CCC(C)(C)CC1)n2Cc1ccc(Cl)cc1 [Example E11, 7-(4-chlorobenzyl)-8-(4,4-dimethylcyclohex-1-en-1-yl)-1-(3-hydroxypropyl)-3-methyl-3,7-dihydro-1H-purine-2,6-dione] | 8.06 | –
2 | Cn1c(=O)n(CCCO)c(=O)c2c1nc(C1=CCC(C(F)(F)F)CC1)n2Cc1ccc(Cl)cc1 (stereo not shown) [Example E41, 7-(4-chlorobenzyl)-1-(3-hydroxypropyl)-3-methyl-8-(4-(trifluoromethyl)cyclohex-1-en-1-yl)-3,7-dihydro-1H-purine-2,6-dione] | 7.26 | –
3 | Cn1c(=O)n(CCCO)c(=O)c2c1nc(C1(O)CCC(C(F)(F)F)CC1)n2Cc1ccc(Cl)cc1 (stereo not shown) [Example E23, 7-(4-chlorobenzyl)-8-(1-hydroxy-4-(trifluoromethyl)cyclohexyl)-1-(3-hydroxypropyl)-3-methyl-3,7-dihydro-1H-purine-2,6-dione] | 6.49 | –
4 | Cn1c(=O)n(CCCO)c(=O)c2c1nc(C1(F)CCC(C(F)(F)F)CC1)n2Cc1ccc(F)cc1F (stereo not shown) [Example E65, 7-(2,4-difluorobenzyl)-8-(1-fluoro-4-(trifluoromethyl)cyclohexyl)-1-(3-hydroxypropyl)-3-methyl-3,7-dihydro-1H-purine-2,6-dione] | 8.55 | –
5 | CC(C)n1c(=O)n(CCCO)c(=O)c2c1nc(C1CC1C1CCCC1)n2Cc1ccc(Cl)cc1 (stereo not shown) [Example E15, 7-(4-chlorobenzyl)-8-(2-cyclopentylcyclopropyl)-1-(3-hydroxypropyl)-3-isopropyl-3,7-dihydro-1H-purine-2,6-dione] | 7.12 | –
6 | Cn1c(=O)n(CCCO)c(=O)c2c1nc(C1=Cc3ccccc3C1)n2Cc1ccc(Cl)cc1 [Example E20, 7-(4-chlorobenzyl)-1-(3-hydroxypropyl)-8-(1H-inden-2-yl)-3-methyl-3,7-dihydro-1H-purine-2,6-dione] | 7.08 | –
7 | Cn1c(=O)n(CCCO)c(=O)c2c1nc(C1=CC(F)C(C)(C)CC1)n2Cc1ccc(Cl)cc1 (stereo not shown) [Example E34] | 7.31 | –
8 | C/C(=N\OC(C)(C)C)c1nc2c(c(=O)n(CCCO)c(=O)n2C)n1Cc1ccc(Cl)cc1 [Example E27, (E)-8-(1-(tert-butoxyimino)ethyl)-7-(4-chlorobenzyl)-1-(3-hydroxypropyl)-3-methyl-3,7-dihydro-1H-purine-2,6-dione] | 7.19 | –
9 | Cn1c(=O)n(CCCO)c(=O)c2c1nc(C1CCC3(CC1)OCCO3)n2Cc1ccc(Cl)cc1 [Example E13, 7-(4-chlorobenzyl)-1-(3-hydroxypropyl)-3-methyl-8-(1,4-dioxacyclo[4.5]dec-8-yl)-3,7-dihydro-1H-purine-2,6-dione] | – | 7.09
10 | CCC1CCC(F)(c2nc3c(c(=O)n(CCCO)c(=O)n3C)n2Cc2ccc(Cl)cc2)CC1 (stereo not shown) [Example E30, 7-(4-chlorobenzyl)-8-(4-ethyl-1-fluorocyclohexyl)-1-(3-hydroxypropyl)-3-methyl-3,7-dihydro-1H-purine-2,6-dione] | 6.55 | –
11 | Cn1c(=O)n(CCCO)c(=O)c2c1nc(/C=N/OC(C)(C)C)n2Cc1ccc(Cl)cc1 [Example E18, (E)-7-(4-chlorobenzyl)-1-(3-hydroxypropyl)-3-methyl-2,6-dioxo-2,3,6,7-tetrahydro-1H-purine-8-carbaldehyde-O-(tert-butyl)oxime] | 7.36 | –
12 | Cn1c(=O)n(CCCO)c(=O)c2c1nc(C1(F)CCC(C(F)(F)F)CC1)n2Cc1ccc(C#N)cc1 (stereo not shown) [Example E73, 4-((8-(1-fluoro-4-(trifluoromethyl)cyclohexyl)-1-(3-hydroxypropyl)-3-methyl-2,6-dioxo-1,2,3,6-tetrahydro-7H-purin-7-yl)methyl)benzonitrile] | 8.73 | –
13 | Cn1c(=O)n(CCCO)c(=O)c2c1nc(C1(F)CCC(C(F)(F)F)CC1)n2Cc1ccc(F)cc1Cl (stereo not shown) [Example E67, 7-(2-chloro-4-fluorobenzyl)-8-(1-fluoro-4-(trifluoromethyl)cyclohexyl)-1-(3-hydroxypropyl)-3-methyl-3,7-dihydro-1H-purine-2,6-dione] | 7.72 | –
14 | CCn1c(=O)n(CCCO)c(=O)c2c1nc(C1=CCC(C(F)(F)F)CC1)n2Cc1ccc(Cl)c(F)c1 (stereo not shown) [Example E57, 7-(4-chloro-3-fluorobenzyl)-3-ethyl-1-(3-hydroxypropyl)-8-(4-(trifluoromethyl)cyclohex-1-en-1-yl)-3,7-dihydro-1H-purine-2,6-dione] | 7.28 | –
15 | CC1CCC(F)(c2nc3c(c(=O)n(CCCO)c(=O)n3C)n2Cc2ccc(Cl)cc2)CC1 (stereo not shown) [Example E39, 7-(4-chlorobenzyl)-8-(1-fluoro-4-methylcyclohexyl)-1-(3-hydroxypropyl)-3-methyl-3,7-dihydro-1H-purine-2,6-dione] | 8.33 | –
16 | Cn1c(=O)n(CCCO)c(=O)c2c1nc(C1(F)CCC(C#N)CC1)n2Cc1ccc(Cl)cc1 (stereo not shown) [Example E40, 4-(7-(4-chlorobenzyl)-1-(3-hydroxypropyl)-3-methyl-2,6-dioxo-2,3,6,7-tetrahydro-1H-purin-8-yl)-4-fluorocyclohexane-1-carbonitrile] | 8.43 | –
17 | CCn1c(=O)n(CCCO)c(=O)c2c1nc(C1(F)CCC(C(F)(F)F)CC1)n2Cc1ccc(Cl)c(F)c1 (stereo not shown) [Example E51, 7-(4-chloro-3-fluorobenzyl)-3-ethyl-8-(1-fluoro-4-(trifluoromethyl)cyclohexyl)-1-(3-hydroxypropyl)-3,7-dihydro-1H-purine-2,6-dione] | 8.50 | –
18 | Cn1c(=O)n(CCCO)c(=O)c2c1cc(C1=CCCC1)n2Cc1ccc(Cl)cc1 [Example E1, 5-(4-chlorobenzyl)-6-(cyclopent-1-en-1-yl)-3-(3-hydroxypropyl)-1-methyl-1,5-dihydro-2H-pyrrolo[3,2-d]pyrimidine-2,4(3H)-dione] | 7.16 | –
19 | COC1(c2nc3c(c(=O)n(CCCO)c(=O)n3C)n2Cc2ccc(Cl)cc2)CCC(C(F)(F)F)CC1 (stereo not shown) [Example E22, 7-(4-chlorobenzyl)-1-(3-hydroxypropyl)-8-(1-methoxy-4-(trifluoromethyl)cyclohexyl)-3-methyl-3,7-dihydro-1H-purine-2,6-dione] | 6.70 | –
20 | Cn1c(=O)n(CCCO)c(=O)c2c1nc(C1CCC(C(F)(F)F)CC1)n2Cc1ccc(Cl)cc1 (stereo not shown) [Example E12, 7-(4-chlorobenzyl)-1-(3-hydroxypropyl)-3-methyl-8-(4-(trifluoromethyl)cyclohexyl)-3,7-dihydro-1H-purine-2,6-dione] | 7.87 | –
21 | CC(C)n1c(=O)n(CCCO)c(=O)c2c1nc(C1(F)CCC(C(F)(F)F)CC1)n2Cc1ccc(Cl)cc1 (stereo not shown) [Example E53, 7-(4-chlorobenzyl)-8-(1-fluoro-4-(trifluoromethyl)cyclohexyl)-1-(3-hydroxypropyl)-3-isopropyl-3,7-dihydro-1H-purine-2,6-dione] | 7.38 | –
22 | Cn1c(=O)n(CCCO)c(=O)c2c1cc(C1CCCC1)n2Cc1ccc(Cl)cc1 [Example E2, 5-(4-chlorobenzyl)-6-cyclopentyl-3-(3-hydroxypropyl)-1-methyl-1,5-dihydro-2H-pyrrolo[3,2-d]pyrimidine-2,4(3H)-dione] | 6.95 | –
23 | CC(C)OC1CC=C(c2nc3c(c(=O)n(CCCO)c(=O)n3C)n2Cc2ccc(Cl)cc2)CC1 (stereo not shown) [Example E8, 7-(4-chlorobenzyl)-1-(3-hydroxypropyl)-8-(4-isopropoxycyclohex-1-en-1-yl)-3-methyl-3,7-dihydro-1H-purine-2,6-dione] | 7.71 | –
24 | Cn1c(=O)n(CCCO)c(=O)c2c1nc(C1(F)CCC(C(F)(F)F)CC1)n2Cc1ccc(Cl)cc1F (stereo not shown) [Example E71, 7-(4-chloro-2-fluorobenzyl)-8-(1-fluoro-4-(trifluoromethyl)cyclohexyl)-1-(3-hydroxypropyl)-3-methyl-3,7-dihydro-1H-purine-2,6-dione] | 9.57 | –
25 | Cn1c(=O)n(CCCO)c(=O)c2c1nc(C1(F)CCC(C(F)(F)F)CC1)n2Cc1ccc(F)c(Cl)c1 (stereo not shown) [Example E69, 7-(3-chloro-4-fluorobenzyl)-8-(1-fluoro-4-(trifluoromethyl)cyclohexyl)-1-(3-hydroxypropyl)-3-methyl-3,7-dihydro-1H-purine-2,6-dione] | 9.43 | –
